The source of these data is BindingDB's records for doi:10.1016/j.bmcl.2009.11.060 (Glaxosmithkline, 2010).

Structures are written as SMILES. pIC50: −log10 of the molar value.

This assay can be described thus: Inhibition of GSK3-beta phosphorylation in human BT474 cells.

By pIC50 is commonly meant the negative decadic logarithm of the IC50, by convention in mol/L. Compound `Cc1n[nH]c2ncc(-c3cc(OC[C@@H](N)Cc4c[nH]c5ccccc45)cnc3-c3ccoc3)cc12` [(S)-1-(6-(furan-3-yl)-5-(3-methyl-1H-pyrazolo[3,4-b]pyridin-5-yl)pyridin-3-yloxy)-3-(1H-indol-3-yl)propan-2-amine] showed a pIC50 of 6.59.
The value for `Cc1n[nH]c2ccc(-c3cc(OC[C@@H](N)Cc4c[nH]c5ccccc45)cnc3-c3ccoc3)nc12` [(S)-1-(6-(furan-3-yl)-5-(3-methyl-1H-pyrazolo[4,3-b]pyridin-5-yl)pyridin-3-yloxy)-3-(1H-indol-3-yl)propan-2-amine] was 5.41; that for `Cc1n[nH]c2ncc(-c3cc(OC[C@@H](N)Cc4c[nH]c5ccccc45)cnc3-c3ccoc3)nc12` [(S)-1-(6-(furan-3-yl)-5-(3-methyl-1H-pyrazolo[4,3-b]pyrazin-5-yl)pyridin-3-yloxy)-3-(1H-indol-3-yl)propan-2-amine] was 6.80; that for `Cc1n[nH]c2cnc(-c3cc(OC[C@@H](N)Cc4c[nH]c5ccccc45)cnc3-c3ccoc3)cc12` [(S)-1-(6-(furan-3-yl)-5-(3-methyl-1H-pyrazolo[3,4-c]pyridin-5-yl)pyridin-3-yloxy)-3-(1H-indol-3-yl)propan-2-amine] was 7.19.
